What all share (experiment): NCI-60 cell line screen, 48 h
The subject of assay [1] is SK-OV-3 ovarian.
Assay [2] relates to IGROV1 ovarian.
Assay [3] relates to SNB-75 CNS.
The subject of assay [4] is HL-60(TB) leukemia.
Assay [5] concerns EKVX NSCLC.
Assay [6] deals with SF-295 CNS.
The subject of assay [7] is KM12 colon.
Assay [8] concerns MALME-3M melanoma.
Assay [9] relates to HCT-116 colon.
The subject of assay [10] is RXF 393 renal.

Structures are written as SMILES.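 Interpolation was linear, between the two tested concentrations surrounding the appropriate level; five concentrations were tested over 48 hours in 96-well plates. Abbreviation: GI50, concentration required for 50% inhibition of growth. At the TGI there is no net growth.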

Turning to `CCCC/C=C/C=C/C=C/CCCCCCCC(=O)OCC(COC(=O)CCCCCCC/C=C/C1C=CC(CCCC)C(C(=O)O)C1C(=O)O)OC(=O)CCCCCCC/C=C/C=C/C=C/CCCC` (stereo not given) (tested in a mixture with another compound), the TGI in assay [1] was 44.6 µM; in assay [2], 37.8 µM; in assay [3] it was 36.7 µM; in assay [4], 41.1 µM; in [5], 43.4 µM; in assay [6] it was 35.8 µM. Besides, the TGI turned out to be 34.6 µM in assay [7], 35.8 µM in assay [8] and 30.7 µM in assay [9].
Regarding `NC(=S)N/N=C\c1nccc2c(C(F)(F)F)cccc12`, the GI50 is 0.17 µM in assay [1]; 0.365 µM in assay [2]; 0.284 µM in assay [3]; 0.286 µM in assay [4]; 0.251 µM in assay [10]; 0.341 µM in assay [6]. The figures for the GI50 in [7], in [8] and in assay [9] were 0.356 µM, 0.435 µM and 0.298 µM, respectively. Moreover, the TGI was 5.89 µM in assay [1]; 14.8 µM in [2]; 16.7 µM in assay [3]; 1.19 µM in assay [4]; 2.53 µM in assay [10]; 10.3 µM in assay [6]. In addition, the TGI in assay [7] is 16.9 µM; in assay [8] it was > 34.5 µM; in [9], 4.26 µM.
On to `S=P1(Oc2ccccc2)NNP2(=NP(N3CC3)(N3CC3)=NP(N3CC3)(N3CC3)=N2)NN1` (stereo not given), for which the TGI in [1], in assay [2], in assay [3], in [4], in assay [5] and in assay [7] was > 100 µM throughout. Also, the TGI in [8] and in assay [9] was > 100 µM in each case.
As for `Cc1ccc(NC2=C3CCCCC3OC2=O)cc1` (stereo not given), the GI50 in assay [1] is > 100 µM; in assay [2] it was 54.3 µM; in assay [3], 71.9 µM; in assay [4], 55.6 µM; in assay [10], > 100 µM; in assay [6], 75 µM. For the same compound, the GI50 in assay [7] is > 100 µM; in [8], 39.2 µM; in assay [9], 66.1 µM. Moreover, the TGI in assay [1], in assay [2], in assay [3], in assay [4], in assay [10] and in assay [6] was > 100 µM throughout. The TGI in assay [7], in assay [8] and in [9] was > 100 µM in each case.
On to `COc1ccc2c(c1)[n+]([O-])c(C(N)=O)c(N)[n+]2[O-]`, for which the TGI in assay [1], in assay [2], in assay [3], in assay [4], in assay [5] and in assay [6] was > 100 µM throughout. The TGI in assay [7], in [8] and in assay [9] was > 100 µM each time.
Consider `O=C1C(C(Nc2ccccc2)c2ccccc2)=C([O-])c2ccccc21.O=C1C(C(Nc2ccccc2)c2ccccc2)=C([O-])c2ccccc21.[Cu+2]` (stereo not given), for which the GI50 in assay [1] was 8.38 µM; in assay [2] it was 54.5 µM; in assay [3] it was 17.2 µM; in assay [4], 19.6 µM; in [6], 48.2 µM; in assay [7], 32.2 µM. For the same compound, the GI50 is 65.8 µM in assay [8] and 12 µM in assay [9]. For the same compound, the TGI in assay [1] is 63 µM; in [2], > 100 µM; in assay [3] it was 92.1 µM; in assay [4], > 100 µM; in assay [6] it was > 100 µM; in [7], > 100 µM. For the same compound, the TGI in [8] and in assay [9] was > 100 µM in each case.
As to `Cc1cc(Nc2ccc(C)c(Cl)c2)n2nc(C(F)(F)F)nc2n1`, the GI50 was 29.9 µM in assay [1]; 26.7 µM in assay [2]; 27.7 µM in assay [3]; 22.1 µM in [4]; 19.4 µM in assay [10]; 21.2 µM in [6]. The GI50 in [7] was 27.2 µM; in assay [8], 30.4 µM; in assay [9], 17.2 µM. The TGI was 96.7 µM in [1]; > 100 µM in assay [2]; > 100 µM in assay [3]; 66.2 µM in assay [4]; 82.4 µM in assay [10]; 74 µM in [6]. Besides, the TGI in assay [7] is > 100 µM; in assay [8], 97.9 µM; in assay [9] it was 46.2 µM.
Take `CC#Cc1ccc(-c2ccccc2)s1`: the TGI in assay [2], in assay [3], in assay [4], in [10], in [5] and in assay [6] was > 100 µM each time. Moreover, the TGI in assay [7] and in assay [9] was > 100 µM each time.
As to `COc1cc2c(cc1OC)-c1cc(OC)c(OC)cc1C(CN(C)C)C2` (stereo not given), the GI50 is > 10 µM in [1]; > 10 µM in assay [2]; 4.56 µM in [3]; > 10 µM in assay [4]; > 10 µM in [10]; > 10 µM in assay [6]. The GI50 in assay [7], in [8] and in [9] was > 10 µM in each case. In addition, the TGI in assay [1], in assay [2], in assay [3], in assay [4], in assay [10] and in assay [6] was > 10 µM each time. Also, the TGI in [7], in assay [8] and in assay [9] was > 10 µM in each case.
`COc1ccc(Cn2c(Br)c3c(c2Br)-c2nc(N)sc2CC3)cc1`: the GI50 in assay [1] is 4.01 µM; in assay [2], 11.6 µM; in [3] it was 1.92 µM; in [4] it was 2.75 µM; in assay [10] it was 1.97 µM; in assay [6], 3.07 µM. Also, the figures for the GI50 in assay [7], in assay [8] and in [9] were 3.47 µM, 5.22 µM and 2.89 µM, respectively. Besides, the TGI is 20 µM in assay [1]; 39.2 µM in [2]; 8.64 µM in [3]; 22.6 µM in [4]; 5.05 µM in assay [10]; 10.4 µM in [6]. The TGI in [7] stood at 20.6 µM; in assay [8] it was 19.9 µM; in [9], 11.2 µM.

Values taken from PubChem BioAssay (NCI).
